# Test results taken from patent publication US20250368687A1, “SHORT SYNTHETIC PEPTIDES AND USES THEREOF IN THE TREATMENT OF ENTEROVIRUS INFECTION” (CITY UNIVERSITY OF HONG KONG, priority 2024, published 2025).
# What was measured:
# Assay type in all cases: cell-based
# [1] = test system: Hsp27 and hnRNP A1 redistribution in RD cells; assay: Immunofluorescence colocalization assay of Hsp27/hnRNP A1 redistribution, RD cells with or without EV-A71 infection; settings: for fraction of Hsp27 overlapping DAPI (M1 colocalization coefficient): EV-A71-infected RD cells; for redistribution of Hsp27 and hnRNP A1 in EV-A71-infected RD cells / localization of Hsp27 and hnRNP A1 in mock RD cells: 25 μM for 2h; for redistribution of Hsp27 and hnRNP A1 in EV-A71-infected RD cells: EV-A71 MOI 40 for 6h; for localization of Hsp27 and hnRNP A1 in mock RD cells: without EV-A71
# Method: (§1) The cells on coverslips were infected with EV-A71 at the multiplicity of infection (MOI) of 40 for 6 hrs to assure the high efficiency of viral infection. Then the cells were fixed by 4% paraformaldehyde for 20 min, permeabilized by 0.5% Triton X-100 for 15 min, blocked with 5% BSA for 2 hrs, and stained by incubation with anti-Hsp27 (GTX101145) and anti-hnRNP A1 (sc-32301) antibody, then with Alexa Fluor 488 conjugated anti-rabbit antibody and Alexa Fluor 594 conjugated anti-mouse antibody respectively. After washing four times with 0.2% Triton X-100, the nuclei were stained with DAPI or Hoechst for 5 min. The images were captured by a Nikon A1HD25 High speed and Large Field of View Confocal Microscope. Colocalization analysis was conducted using the JACoP-plugin of the extended ImageJ version Fiji. The M1 colocalization coefficient was computed to illustrate the colocalization levels of Hsp27 and hnRNP A1 overlapped with Hoechst.
# Hsp27 is predominantly located in the cytoplasm, however, stress (e.g., heat shock, virus infection) can induce partial redistribution of Hsp27 from the cytoplasm to the nucleus, concomitantly with its phosphorylation. We thus postulated that the cellular redistribution of Hsp27 may be associated with its phosphorylation upon EV-A71 infection. To verify the hypothesis, RD cells were with SB203580 at 0, 2, 4, and 8 μM for 2 h, and the cells were infected with EV-A71 for 6 h. […] The colocalization of Hsp27 and DAPI, which stands for the level of redistribution of Hsp27, was also quantified. The colocalization coefficient M1 was computed as the fraction of Hsp27 colocalized with DAPI in the total Hsp27 area using the JACoP-plugin in FIJI.
# We hypothesized that peptides S78 and S82A could interfere with Ser78 phosphorylation while peptides S78A (Ser78 replaced by Ala78) would not affect the phosphorylation of Ser78 of Hsp27. […] RD cells were pre-treated with peptide S78, S78A or S82A at the concentrations of 25 μM for 2h and then infected with or without EV-A71 at an MOI of 40 for 6h.
# CCK-8 assay = settings: human; RD cells, data not shown
# Method: RD cells were seeded in 96-well cell plates (1×10^4/well) and placed in the 5% CO2 incubator for 1 day. Then the cells were treated with peptides for 2 days. 90 μl medium and 10 μl of CCK-8 (BioSharp, BS350B) was added to each well of the 96-well plate, which were incubated at 37° C. for 1 h. A microplate reader (BioTek, Synergy H1) was used to measure the OD value of each well at 450 nm.
# [2] = test system: 2Apro-induced relocalization of Hsp27 and hnRNP A1 in RD cells; assay: Immunofluorescence colocalization assay of 2Apro-induced relocalization of Hsp27 and hnRNP A1; settings: 25 μM for 2 hours, transfected with 2Apro for 24 hours
# Method: FIGS. 9A-9B Peptide S78 blocks the 2A^pro-induced relocalization of Hsp27 and hnRNP A1. RD cells on the coverslips were treated with peptides (S78, S78A, and S82A) at the concentration of 25 μM for 2 hours, and then transfected with 2A^pro for 24 hours. The cells were fixed and stained with anti-Hsp27and anti-hnRNPAI, followed by Alexa Fluor 488-conjugated anti-rabbit antibody and Alexa Fluor 594-conjugated anti-mouse antibody. The nuclei were stained with Hoechst. The images were captured by Nikon A1HD25 Confocal Microscope. The JACoP-plugin of the extended ImageJ version Fiji was used to compute the M1 colocalization coefficient, in which (FIG. 9A) is M1 colocalization coefficient for the fraction of Hsp27 in Hoechst and (FIG. 9B) is the M1 colocalization coefficient for the fraction of hnRNP A1 in Hoechst. Statistical analyses were carried out using Student's t-test. *: p<0.05, **: p<0.01, ***: p<0.001. Data are expressed as mean ±SD.
# as §1
# EV-A71 = assay: EV-A71-induced cytopathic effect (CPE) on RD cells; settings: EV-A71 MOI 1 for 12 hours
# Method: FIGS. 10A-10K. Peptide S78 inhibited EV-A71 replication and propagation. (FIG. 10A) RD cells were pre-treated with peptides S78 or for 2 hours and infected with EV-A71 at the MOI of 10 for 6 hours. Cell lysates were collected for western blot assay. Hsp27 phosphorylation on Ser 15, 78, 82 were detected by specific antibodies. β-Actin were detected as internal control. (FIG. 10B) Densitometric analysis of FIG. 9A. (FIG. 10C) HEK 293T cells were pre-treated with peptides S78 or S78A at the concentration of 25 μM for 2 hours and then co-transfected with Hsp27-WT plasmid (800 ng), pIRES reporter plasmid (200 ng) and 2A^pro-expressing plasmid or 2AC110A-expressing plasmid (200 ng) for 24 h, then the luciferase activity was measured. (FIG. 10D-10E) RD cells were treated with peptides S78 or S78A and then infected with EV-A71. EV-A71 VP1 were detected. (FIG. 10F) RD cells were treated with peptides and then infected with EV-A71 at the MOI of 1 for 12 hours. The EV-A71-induced CPE was captured. (FIG. 10G-10H) Intracellular viral RNA was extracted and quantified by qPCR. (FIG. 10I) Densitometric analysis FIG. 9D-E. (FIG. 10J) RD cells were treated with peptides S78 or and then infected with EV-A71 at the MOI of 1 for 12 hours. Extracellular viral RNA was extracted and quantified by qPCR. (FIG. 10K) Viral titration was calculated by TCID50. […] Data are expressed as mean ±SD. […]
Compound,"fraction of Hsp27 overlapping DAPI (M1 colocalization coefficient) ([1]; 0, 2, 4, 8 μM)","nuclear Hsp27 level upon EV-A71 infection ([1]; 2 μM for 2 h, EV-A71 6 h, RD cells)","nuclear relocation of Hsp27 upon EV-A71 infection ([1]; 4 μM for 2 h, EV-A71 6 h, RD cells)",fraction of Hsp27 overlapping DAPI (M1 colocalization coefficient) ([1]; 8 μM),Hsp27 translocation to the nucleus without EV-A71 infection ([1]; RD cells without EV-A71 infection),redistribution of Hsp27 and hnRNP A1 in EV-A71-infected RD cells [1],localization of Hsp27 and hnRNP A1 in mock RD cells [1],CC50 at 2 days (CCK-8 assay),2Apro-induced relocalization of Hsp27 and hnRNP A1 [2],protection from EV-A71-induced CPE (EV-A71)
"C[S+]([O-])c1ccc(-c2nc(-c3ccncc3)c(-c3ccc(F)cc3)[nH]2)cc1 (stereo not shown) [SB203580, reference compound]",reduced in a dose-dependent manner,markedly reduced,further blocked to an invisible level,reduced to the basal level,not translocated to the nucleus,–,–,–,–,–
Ac-RKKRRQRRRAYSRALARQLSS-NH2 [S78A],–,–,–,–,–,only partially reduced,not affected,> 600 µM,still showed a certain cellular redistribution,mild protection
Ac-RKKRRQRRRAYSRALSRQLSS-NH2 [S78],–,–,–,–,–,dramatically blocked,not affected,> 600 µM,almost completely blocked,dramatically protected
"Ac-RKKRRQRRRYSREANQPKPSPKRESGEE-NH2 [NC, reference compound]",–,–,–,–,–,did not affect,–,–,–,–
